Source: ChEMBL document CHEMBL3286240, “Inhibition of Enterococcus faecalis biofilm formation by highly active lactones and lactams analogues of rubrolides” (Eur J Med Chem, 2014)
Converted amounts (≈) assume the structure as drawn.

Assays:
Enterococcus faecalis [1] = test: Antimicrobial activity against Enterococcus faecalis assessed as bacterial growth at 87.5 ug/ml after 20 hrs by microtiter plate assay; format: functional
Enterococcus faecalis [2] = test: Antimicrobial activity against Enterococcus faecalis assessed as bacterial growth at 43.8 ug/ml after 20 hrs by microtiter plate assay; format: functional
Enterococcus faecalis [3] = test: Antimicrobial activity against Enterococcus faecalis assessed as bacterial growth at 21.9 ug/ml after 20 hrs by microtiter plate assay; format: functional
Enterococcus faecalis [4] = test: Antimicrobial activity against Enterococcus faecalis assessed as bacterial growth at 10.9 ug/ml after 20 hrs by microtiter plate assay; format: functional
Enterococcus faecalis [5] = test: Antimicrobial activity against Enterococcus faecalis assessed as bacterial growth at 5.5 ug/ml after 20 hrs by microtiter plate assay; format: functional
Enterococcus faecalis [6] = test: Antimicrobial activity against Enterococcus faecalis assessed as bacterial growth at 2.73 ug/ml after 20 hrs by microtiter plate assay; format: functional
Enterococcus faecalis [7] = test: Antimicrobial activity against Enterococcus faecalis assessed as bacterial growth at 1.37 ug/ml after 20 hrs by microtiter plate assay; format: functional
Enterococcus faecalis [8] = test: Antimicrobial activity against Enterococcus faecalis assessed as bacterial growth at 0.68 ug/ml after 20 hrs by microtiter plate assay; format: functional
Enterococcus faecalis [9] = test: Antimicrobial activity against Enterococcus faecalis assessed as bacterial growth at 0.34 ug/ml after 20 hrs by microtiter plate assay; format: functional
Enterococcus faecalis [10] = test: Antimicrobial activity against Enterococcus faecalis assessed as bacterial growth at 0.17 ug/ml after 20 hrs by microtiter plate assay; format: functional
Enterococcus faecalis [11] = test: Antimicrobial activity against Enterococcus faecalis assessed as inhibition of biofilm formation after 20 hrs by crystal violet staining analysis; format: functional, organism-based

| SMILES | Activity (Enterococcus faecalis [1]) [%] | Activity (Enterococcus faecalis [2]) [%] | Activity (Enterococcus faecalis [3]) [%] | Activity (Enterococcus faecalis [4]) [%] | Activity (Enterococcus faecalis [5]) [%] | Activity (Enterococcus faecalis [6]) [%] | Activity (Enterococcus faecalis [7]) [%] | Activity (Enterococcus faecalis [8]) [%] | Activity (Enterococcus faecalis [9]) [%] | Activity (Enterococcus faecalis [10]) [%] | IC50 (Enterococcus faecalis [11]) [µg/mL] |
| --- | --- | --- | --- | --- | --- | --- | --- | --- | --- | --- | --- |
| COc1ccc(Br)cc1C1=C(Br)C(=O)N(CC(C)C)/C1=C/c1ccc(Br)cc1 | 57.1 | 22.5 | 18.1 | 10.6 | 9.6 | 20.2 | 15.8 | 1.8 | -4.4 | 0.8 | 3.35 (≈ 5.88 µM) |
| COc1ccc(C)cc1C1=C(Br)C(=O)N(CC(C)C)/C1=C/c1cccc(Cl)c1 | 81.4 | 38.4 | 31.8 | 19.4 | 10.5 | 5 | 1.4 | 1.4 | 6.8 | 0.4 | 59.3 (≈ 129 µM) |
| COc1ccc(C)cc1C1=C(Br)C(=O)N(CC(C)C)/C1=C/c1ccccc1Cl | 82 | 58.8 | 46.9 | 36.1 | 36.6 | 27.8 | 15.7 | -1 | -1.8 | -1.5 | 1.04 (≈ 2.26 µM) |
| COc1ccc(Cl)cc1C1=C(Br)C(=O)N(CC(C)C)/C1=C/c1ccccc1Br | 60.9 | 43.4 | 32.4 | 42.7 | 43.4 | 33.3 | 19.2 | 9.1 | 7.4 | 0.5 | 0.76 (≈ 1.45 µM) |
| COc1cccc(/C=C2\C(c3cc(Cl)ccc3OC)=C(Br)C(=O)N2CC(C)C)c1 | 56.3 | 33.5 | 30.1 | 20.8 | 33.7 | 8.1 | -4.8 | -6 | -6.4 | -9.4 | 3.26 (≈ 6.84 µM) |
